The source of these data is patent US9034871B2, “Compounds for Alzheimer's disease” (priority 2004, dated 2015).

Each structure is given as a SMILES string. pIC50: −log10 of the molar value. Read-outs that look alike come from different tables or passages of the source. Bounds are passed on as bounds.

What is called pIC50 is the negative decadic logarithm of the IC50, by convention in mol/L.

The conditions of test [1]: clinical trials in AD patients; cited from earlier work.
For test [2] the following is noted: large prevention trial, patients having mild cognitive impairment; placebo 4.5%; cited from earlier work.
A further test has as its system Aβ42. The experiment in a line: Detection of secreted Aβ42 with Biosource ELISA kit in H4 cells expressing APP695. Format: cell-based. The conditions noted are these: read-out: Ab42 IC50. Here is the method:
The present invention provides compositions and methods for lowering Aβ42 levels. To test whether compounds and compositions are capable of modulating Aβ levels, a sandwich enzyme-linked immunosorbent assay (ELISA) is employed to measure secreted Aβ (Aβ42 and/or Aβ40) levels. In this example, H4 cells expressing wide type APP695 are seeded at 200,000 cells/per well in 6 well plates, and incubated at 37 degree C. with 5% CO2 overnight. Cells are treated with 1.5 ml medium containing vehicle (DMSO) or a test compound at 1.25 μM, 2.5 μM, 5.0 μM and 10.0 μM (as well as other concentration if desirable) concentration for 24 hours or 48 hours. The supernatant from treated cells is collected into eppendorf tubes and frozen at −80 degree C. for future analysis.
The amyloid peptide standard is reconstituted and frozen samples are thawed. The samples and standards are diluted with appropriate diluents and the plate is washed 4 times with Working Wash Buffer and patted dry on a paper towel. 100 μL per well of peptide standards, controls, and dilutions of samples to be analyzed is added. The plate is incubated for 2 hours while shaking on an orbital plate shaker at RT. The plate is then washed 4 times with Working Wash Buffer and patted dry on a paper towel. Detection Antibody Solution is poured into a reservoir and 100 μL /well of Detection Antibody Solution is immediately added to the plate. The plate is incubated at RT for 2 hours while shaking and then washed four times with Working Wash Buffer and patted dry on a paper towel. Secondary Antibody Solution is then poured into a reservoir and 100 μL /well of Secondary Antibody Solution is immediately added to the plate. The plate is incubated at RT for 2 hours with shaking, washed 5 times with Working Wash Buffer, and patted dry on a paper towel.
100 μL of stabilized chromogen is added to each well and the liquid in the wells begins to turn blue. The plate is incubated for 30 minutes at room temperature and in the dark. 100 μL of stop solution is added to each well and the plate is tapped gently to mix resulting in a change of solution color from blue to yellow. The absorbance of each well is read at 450 nm having blanked the plate reader against a chromogen blank composed of 100 μL each of stabilized chromogen and stop solution. The plate is read within 2 hours of adding the stop solution. The absorbance of the standards is plotted against the standard concentration and the concentrations of unknown samples and controls are calculated.
These compounds were synthesized via the indicated synthetic route. Ab42 IC50 (uM) refers to IC50 value for Ab42 lowering in e.g., the assay described in Example 6.

The mark [3] stands for this setting: IC50 value for Ab42 lowering in e.g. the assay described in Example 6.
The mark [4] stands for this setting: Ab42 lowering, cell based assay.

As to `CS(=O)(=O)c1ccc(C2=C(c3ccccc3)C(=O)OC2)cc1` [rofecoxib], the “efficacy for treating AD” value in test [1] is reported as “failed to show efficacy”. Moreover, the “patients who developed AD” value in test [2] is 6.4%.

With `COc1ccc2cc([C@H](C)C(=O)O)ccc2c1` [Naproxen], the “efficacy for treating AD” value in test [1] is recorded as “failed to show efficacy”.

On to `O=C(O)c1cccc(-n2c(-c3ccccc3)cc3ccccc32)c1` [Compound 17, 3-(2-phenylindol 1-yl) benzoic acid], for which the pIC50 in the test with Aβ42 (setting [3]) is 4.26.

Turning to `CC(C)(C)C1CCc2c(cc(-c3ccccc3)n2-c2cccc(C(=O)O)c2)C1` (stereo not drawn) [Compound 34, 3-(5-tert-butyl-2-phenyl-4,5,6,7-tetrahydroindol-1-yl)benzoic acid], the pIC50 in the test on Aβ42 (setting [3]) was 5.10.

`O=C(O)CCCc1ccc(-n2c(-c3ccc4c(c3)OCO4)cc3c2CCc2ccccc2-3)cc1` [4-[4-(2-benzo[1,3]dioxol-5-yl-dihydrobenzo[e]indol-3-yl)-phenyl] butyric acid]: the pIC50 in the test on Aβ42 (setting [4]) is 5.06.

For the molecule `O=C(O)c1ccc(-c2cc3c(n2-c2ccccc2)CCc2ccccc2-3)cc1` [Compound 69, 4-(3-phenyl-4,5-dihydro-3H-benzo[e]indol-2-yl) benzoic acid], the pIC50 in the test with Aβ42 (setting [3]) was 4.35.

As to `O=C(O)c1cccc(-n2c(-c3ccc(-c4ccc(Cl)cc4Cl)o3)cc3c4ccccc4ccc32)c1` [3-{2-[5-(2,4-dichlorophenyl)-furan-2-yl]-benzo[e]indol-3-yl} benzoic acid], in the test with Aβ42 (setting [4]), the negative logarithm of the IC50 (pIC50) was 4.48.

In the case of `c1ccc(-c2cc3c(n2-c2cccc(-c4nn[nH]n4)c2)CCc2ccccc2-3)cc1` [drawing 1720, 2-phenyl-3-[3-(2H-tetrazol-5-yl)-phenyl]-4,5-dihydro-3H-benzo[e]indole], the pIC50 in the test on Aβ42 (setting [4]) is 4.62.

Regarding `O=C(O)c1cccc(-n2c(-c3ccncc3)cc3c2CCc2ccccc2-3)c1` [3-(2-pyridin-4-yl-4,5-dihydrobenzo[e]indol-3-yl) benzoic acid], the negative logarithm of the IC50 (pIC50) with Aβ42 (setting [4]) was 4.19.

As to `O=C(O)c1cccc(-n2c(-c3ccccc3)cc3c2CCC(c2ccccc2)C3)c1` (stereo not drawn) [Compound 71, 3-(2,5-diphenyl 4,5,6,7-tetrahydroindol-1-yl) benzoic acid], the pIC50 in the test with Aβ42 (setting [3]) was 4.30.

With `c1cncc(-c2cc3c(n2-c2cccc(-c4nn[nH]n4)c2)CCc2ccccc2-3)c1` [2-pyridin-3-yl-3-[3-(2H-tetrazol-5-yl)-phenyl]-4,5-dihydro-3H-benzo[e]indole], the negative-log IC50 (pIC50) in the test with Aβ42 (setting [4]) is < 4.00.

On to `c1cc(-c2nn[nH]n2)cc(-n2c(-c3cc4ccccc4o3)cc3c2CCc2ccccc2-3)c1` [2-benzofuran-2-yl-3-[3-(2H-tetrazol-5-yl)-phenyl]-4,5-dihydro-3H-benzo[e]indole], for which the pIC50 in the test with Aβ42 (setting [4]) was 5.03.

Consider `O=C(O)c1cccc(-n2c(-c3ccsc3)cc3c4ccccc4ccc32)c1` [3-(2-thiophen-3-yl-benzo[e]indol-3-yl) benzoic acid], for which the pIC50 in the test on Aβ42 (setting [4]) was 4.88.

For `Cc1onc(-c2ccccc2)c1-c1cc2c3ccccc3ccc2n1-c1cccc(C(=O)O)c1` [3-[2-(5-methyl-3-phenylisoxazol-4-yl)-benzo[e]indol-3-yl] benzoic acid], the negative logarithm of the IC50 (pIC50) in the test on Aβ42 (setting [4]) is 4.40.
